{"source": "paper PMC6474809", "about": "(Cell chemical biology, 2019)", "key": {"H. influenzae NfsB [1]": {"target": "T1, H. influenzae NfsB (Haemophilus influenzae, UniProt Q57431)", "T1 sequence (Q57431 whole entry)": "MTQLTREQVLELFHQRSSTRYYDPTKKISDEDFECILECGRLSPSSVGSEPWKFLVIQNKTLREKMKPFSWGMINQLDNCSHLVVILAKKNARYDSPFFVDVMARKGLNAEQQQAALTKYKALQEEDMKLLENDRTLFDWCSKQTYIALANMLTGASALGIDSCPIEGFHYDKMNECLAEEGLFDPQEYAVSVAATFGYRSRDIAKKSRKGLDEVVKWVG", "assay": "Michaelis-Menten kinetics by NADPH oxidation", "assay_type": "biochemical"}, "H. influenzae NfsB [2]": {"target": "T1, H. influenzae NfsB"}, "H. influenzae NfsB [3]": {"target": "T1, H. influenzae NfsB", "assay": "NAD", "assay_type": "biochemical"}, "H. influenzae NfsB [4]": {"target": "T1, H. influenzae NfsB", "assay": "inhibition of chloramphenicol reduction by purified enzyme, monitored at […] nm", "assay_type": "biochemical"}, "H. influenzae NfsB [5]": {"target": "T1, H. influenzae NfsB", "assay": "TLC of flavin released from heat-denatured purified enzyme", "assay_type": "binding"}, "H. influenzae NfsB [6]": {"target": "T1, H. influenzae NfsB", "remark": "listed apart in the source"}, "[7]": {"tested_on": "O=C(N[C@H](CO)[C@H](O)c1ccc([N+](=O)[O-])cc1)C(Cl)Cl", "assay": "purified protein", "assay_type": "biochemical, Haemophilus influenzae", "conditions": "FMN, NADPH"}}, "data": [{"compound": "O=[N+]([O-])c1cccc(O)c1", "note": "[3-nitrophenol]", "values": [{"measurement": "Michaelis-Menten kinetics by NADPH oxidation (kcat/KM)", "setting": "H. influenzae NfsB [1]", "result": 61800, "unit": "M⁻¹ s⁻¹"}]}, {"compound": "O=[N+]([O-])c1ccc(O)cc1", "note": "[4-nitrophenol]", "values": [{"measurement": "enzyme turnover monitored at 450 nm; kcat/KM not determined", "setting": "H. influenzae NfsB [2]", "result": "All three of these compounds also acted as substrates, with menadione showing relatively high activity and 4-nitrophenol showing relatively low"}]}, {"compound": "NC(=O)C1=CN([C@@H]2O[C@H](COP(=O)(O)OP(=O)(O)OC[C@H]3O[C@@H](n4cnc5c(N)ncnc54)[C@H](OP(=O)(O)O)[C@@H]3O)[C@@H](O)[C@H]2O)C=CC1", "note": "[NADPH]", "values": [{"measurement": "NAD(P)H oxidation at 340 nm with purified enzyme", "setting": "H. influenzae NfsB [3]", "result": "requires NADPH as a cofactor and does not utilize NADH"}]}, {"compound": "O=c1oc2ccccc2c(O)c1Cc1c(O)c2ccccc2oc1=O", "note": "[dicoumarol]", "values": [{"measurement": "IC50", "setting": "H. influenzae NfsB [4]", "result": 120, "unit": "µM"}]}, {"compound": "Cc1cc2nc3c(=O)[nH]c(=O)nc-3n(C[C@H](O)[C@H](O)[C@H](O)COP(=O)(O)O)c2cc1C", "note": "[flavin mononucleotide]", "values": [{"measurement": "TLC of flavin released from heat-denatured purified enzyme", "setting": "H. influenzae NfsB [5]", "result": "tightly binds a flavin cofactor, most likely flavin mononucleotide (FMN)"}]}, {"compound": "CC1=CC(=O)c2ccccc2C1=O", "note": "[menadione]", "values": [{"measurement": "Michaelis-Menten kinetics by NADPH oxidation (kcat/KM)", "setting": "H. influenzae NfsB [1]", "result": 79340, "unit": "M⁻¹ s⁻¹"}]}, {"compound": "O=C1CN(/N=C/c2ccc([N+](=O)[O-])o2)C(=O)N1", "note": "[nitrofurantoin]", "values": [{"measurement": "Michaelis-Menten kinetics at 420 nm (kcat/KM)", "setting": "H. influenzae NfsB [6]", "result": 242890, "unit": "M⁻¹ s⁻¹"}]}, {"compound": "H. influenzae NfsB (Haemophilus influenzae Rd KW20)", "values": [{"measurement": "Km", "setting": "[7]", "result": 500, "unit": "µM"}]}]}
